Test results as given in patent US8426452B2, “Process for the treatment and prevention of diseases caused by fungi” (priority 2008, dated 2013).
Like-named read-outs stand apart in the source and are kept apart here.

How the values were obtained:
[1] = tested on: S. cerevisiae strain AH109; assay: Growth inhibition of S. cerevisiae strain AH109 in YPD medium (turbidity, A600)
Procedure: (§1) AH109 cells or ATCC 96901 cells were inoculated into 200.0 ml of YPD to obtain an initial OD600 reading of 0.005 on a spectrophotometer. […] The yeast suspensions were placed on a shaking incubator set at 200 rpm and 30° C. for 18-24 hr (S. cerevisiae) or 10-12 hr (C. albicans), and then the extent of fungal growth was assessed by measuring the sample absorbance at 600 nm (A600 nm) on a spectrophotometer. The effect of each concentration of antifungal agent was tested in triplicate.

[2] = tested on: C. albicans strain ATCC 96901; assay: Growth inhibition of fluconazole-resistant C. albicans strain ATCC 96901 in YPD medium (turbidity, A600)
Procedure: as §1

C. albicans strain S2 = assay: Broth microdilution susceptibility testing (MIC), C. albicans strain S2; conditions: fluconazole-resistant C. albicans strain S2, RPMI medium pH 7.0, 48 hr, 30° C.; MIC = lowest concentration with 100% growth inhibition
Procedure: (§2) Broth Microdilution Susceptibility Testing of C. albicans:
(§3) Note that all susceptibility assays were performed in triplicate wells using sterile flat-bottom 24-well microtiter plates.

[3] = tested on: C. albicans strain ATCC 96901; assay: Broth microdilution susceptibility testing (MIC), C. albicans strain ATCC 96901; conditions: fluconazole-resistant C. albicans strain ATCC 96901, RPMI medium pH 7.0, 48 hr, 30° C.; MIC = lowest concentration with 100% growth inhibition
Procedure: as §2, §3

[4] = Saccharomyces cerevisiae, AH109, AH109, read-out: IC50, concentration of drug required to inhibit the growth of yeast cells by 50%
[5] = Candida albicans, ATCC96901, read-out: IC50, concentration of drug required to inhibit the growth of yeast cells by 50%

Procedure for A-431 human skin cells: Cells were then incubated for 48 hr at 37° C. After incubation, the MTT viability assay was performed. This assay measures the conversion of 3-[4,5-dimethylthiazol-2-yl]-2,5-diphenyl tetrazolium bromide (MTT) into a colored product in living cells.
The MTT assay was used to determine cell viability and the LC50 value for each compound was evaluated.

Compound	IC50 ([1]; read-out: IC50, concentration of drug required to inhibit the growth of yeast cells by 50%, S. cerevisiae AH109, YPD medium, 18-24 hr, 30° C.)	IC50 ([2]; read-out: IC50, concentration of drug required to inhibit the growth of yeast cells by 50%, fluconazole-resistant C. albicans ATCC 96901, YPD medium, 10-12 hr, 30° C.)	Toxicity to A-431 human skin cells (MTT viability, LC50 evaluated) (A-431 human skin cells)	MIC compared with fluconazole (C. albicans strain S2)	IC50 [1, 4]	MIC compared with fluconazole [3]	IC50 [2, 5]
C[C@@H]1[C@H](O)[C@@H](C)/C=C/C=C/C=C/C=C/C=C/C=C/C=C/[C@H](O[C@@H]2O[C@H](C)[C@@H](O)[C@H](N)[C@@H]2O)C[C@@H]2O[C@](O)(C[C@@H](O)C[C@@H](O)[C@H](O)CC[C@@H](O)C[C@@H](O)CC(=O)O[C@H]1C)C[C@H](O)[C@H]2C(=O)O [amphotericin B]	30 nM	230 nM	–	–	–	–	–
O=C1c2ccccc2[Se](=O)N1c1ccccc1 (stereo not drawn) [ebselen se-oxide, 2-phenyl-1,2-benzisoselenazol-3(2H)-one 1-oxide]	–	–	neither compound was toxic	lower MIC values, than fluconazole	2100 nM	lower MIC values, than fluconazole	4500 nM
O=c1c2ccccc2[se]n1-c1ccccc1 [ebselen, 2-phenyl-1,2-benzisoselenazol-3(2H)-one]	–	–	neither compound was toxic	lower MIC values, than fluconazole	4600 nM	lower MIC values, than fluconazole	5830 nM
OC(Cn1cncn1)(Cn1cncn1)c1ccc(F)cc1F [fluconazole]	–	–	–	–	53000 nM	–	460000 nM
CCC(C)n1ncn(-c2ccc(N3CCN(c4ccc(OCC5COC(Cn6cncn6)(c6ccc(Cl)cc6Cl)O5)cc4)CC3)cc2)c1=O (stereo not drawn) [itraconazole]	–	–	–	–	1130 nM	–	480 nM
CC(=O)N1CCN(c2ccc(OCC3COC(Cn4ccnc4)(c4ccc(Cl)cc4Cl)O3)cc2)CC1 (stereo not drawn) [ketoconazole]	–	–	–	–	540 nM	–	210 nM
